For one data set, the target named is T1, Cytochrome P450 1A2 (Homo sapiens, UniProt P05177).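 Also: PubChem cytochrome P450 panel assay, CYP1A2 panel member.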
T1 sequence (P05177 whole entry): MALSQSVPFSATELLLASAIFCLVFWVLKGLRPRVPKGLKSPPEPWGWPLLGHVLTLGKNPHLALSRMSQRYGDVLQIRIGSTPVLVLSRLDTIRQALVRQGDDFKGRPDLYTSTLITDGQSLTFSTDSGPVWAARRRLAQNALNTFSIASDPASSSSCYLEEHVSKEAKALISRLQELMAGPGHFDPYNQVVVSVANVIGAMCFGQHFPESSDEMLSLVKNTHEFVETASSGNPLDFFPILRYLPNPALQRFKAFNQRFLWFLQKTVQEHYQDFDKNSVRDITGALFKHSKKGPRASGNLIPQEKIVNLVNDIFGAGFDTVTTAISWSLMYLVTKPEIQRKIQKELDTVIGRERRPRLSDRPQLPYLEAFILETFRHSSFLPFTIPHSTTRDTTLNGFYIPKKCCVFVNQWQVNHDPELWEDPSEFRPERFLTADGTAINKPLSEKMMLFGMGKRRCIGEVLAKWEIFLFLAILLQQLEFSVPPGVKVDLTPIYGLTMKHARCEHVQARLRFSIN

Data set [1] deals with T2, Corticotropin-releasing factor receptor 2/Corticotropin-releasing factor-binding protein (Homo sapiens, UniProt P24387+Q13324).
T2 sequence (Q13324 whole entry): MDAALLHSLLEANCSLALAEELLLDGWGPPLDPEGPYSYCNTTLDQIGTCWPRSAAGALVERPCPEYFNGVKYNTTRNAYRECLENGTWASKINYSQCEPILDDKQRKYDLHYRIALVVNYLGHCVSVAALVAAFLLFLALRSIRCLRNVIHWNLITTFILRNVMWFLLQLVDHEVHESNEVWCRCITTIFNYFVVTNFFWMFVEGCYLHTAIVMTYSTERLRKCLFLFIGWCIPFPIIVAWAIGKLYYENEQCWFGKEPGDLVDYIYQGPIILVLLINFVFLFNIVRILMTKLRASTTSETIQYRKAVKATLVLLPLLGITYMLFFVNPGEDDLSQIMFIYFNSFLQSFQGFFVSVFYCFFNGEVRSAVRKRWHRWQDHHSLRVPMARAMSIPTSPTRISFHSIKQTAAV
T2 sequence (P24387 whole entry): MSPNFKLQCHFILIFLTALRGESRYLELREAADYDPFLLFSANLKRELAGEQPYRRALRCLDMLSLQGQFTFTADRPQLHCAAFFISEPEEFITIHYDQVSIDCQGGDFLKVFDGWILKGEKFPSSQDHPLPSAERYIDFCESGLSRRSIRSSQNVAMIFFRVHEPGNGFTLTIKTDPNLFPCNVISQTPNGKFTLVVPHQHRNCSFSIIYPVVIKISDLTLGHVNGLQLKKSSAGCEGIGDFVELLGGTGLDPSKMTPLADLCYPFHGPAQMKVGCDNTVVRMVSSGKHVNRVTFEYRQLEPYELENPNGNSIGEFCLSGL
Nature of the data set: activators of CRF receptor 2 with binding protein – uHTS hits, confirmation (AID 602473). The format is functional. The note with it: read-out: EC50_Mean.

A further data set addresses Cytochrome P450 2C19 (Homo sapiens, UniProt P33261). The data set can be described thus: Cytochrome panel assay with activity outcomes. Panel member name: p450-cyp2c19 Compounds with AC50 equal or less than 10 uM are considered active. The format is functional.
Data set [2] can be described thus: Trypanosoma cruzi growth suppression in host cells – NIH3T3 host cells, beta-gal luminescence, confirmation (AID 2044).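 Also: intracellular parasites grown in NIH/3T3 mouse fibroblasts as host cells; luminescent beta-galactosidase reporter signal from transgenic T. cruzi replicating inside host cells; inhibitors lower the luminescence signal.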 The format is functional, cell-based.
Data set [3] is described as follows: NIH3T3 cell viability loss – ATP luminescence, mouse fibroblasts, counter-screen, dose response (AID 2010).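 Also: cells exposed to compound for about 90 hours before reading.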 The format is functional, cell-based.
The nature of data set [4]: Luminescence Cell-Based Dose Confirmation HTS to Identify Activators of 5'UTR Stem-Loop Driven Alpha-Synuclein mRNA Translation in H4 Neuroglioblastoma Cells. [Related pubchem assays: 1829 (Project Summary), 1814 (Primary HTS)]. The format is functional.
For another data set, the system named is H4. The data set can be described thus: Luminescence Cell-Based Dose Response HTS to Identify Activators of 5'UTR Stem-Loop Driven Prion Protein mRNA Translation in H4 Neuroglioblastoma Cells. [Related pubchem assays: 1829 (Project Summary), 1814 (Primary HTS)]. The format is functional. The note with it: Homo sapiens.
Data set [5] can be described thus: Luminescence Cell-Based Dose Response HTS to Identify Activators of Luciferase Translation or Activity in H4 […] Cells. [Related pubchem assays: 1829 (Project Summary), 1814 (Primary HTS)]. The format is functional.

Several values for one entry are separate records, joined by “and”; a condition that tells them apart may be missing. Equal entries are not always repeated. Activity calls are given as the source filed them. Where only a bound is given, the exact number is not on record here.

Cytochrome P450 2C19, sequence (P33261 whole entry): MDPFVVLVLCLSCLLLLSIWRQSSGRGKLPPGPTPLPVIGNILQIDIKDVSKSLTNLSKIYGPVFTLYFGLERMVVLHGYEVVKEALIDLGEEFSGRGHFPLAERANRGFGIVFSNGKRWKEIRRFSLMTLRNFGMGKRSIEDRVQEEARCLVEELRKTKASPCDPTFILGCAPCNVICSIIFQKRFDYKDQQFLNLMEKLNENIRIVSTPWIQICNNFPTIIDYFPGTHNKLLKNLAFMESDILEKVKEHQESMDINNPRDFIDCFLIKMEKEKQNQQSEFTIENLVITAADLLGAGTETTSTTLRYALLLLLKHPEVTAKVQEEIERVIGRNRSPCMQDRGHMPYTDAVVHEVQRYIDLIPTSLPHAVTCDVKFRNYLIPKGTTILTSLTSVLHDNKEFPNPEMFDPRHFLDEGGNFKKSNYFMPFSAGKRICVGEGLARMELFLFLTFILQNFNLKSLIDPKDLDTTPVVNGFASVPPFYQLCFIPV

For orientation: AC50 means the concentration at which the activity in the assay is half-maximal. In the case of `Cc1ccc(-c2ccc(CCC(=O)O)o2)cc1`, the AC50 on Cytochrome P450 1A2 is 25.1 µM (inconclusive).
As for `Cc1cccc(C)c1N1CCN(S(=O)(=O)N2CCCCC2)CC1`, the EC50 in data set [1] was 5.58 µM (active).
Regarding `COc1ccc(N(CC(=O)O)N=O)cc1`, the AC50 result on Cytochrome P450 2C19 was “inconclusive”; on Cytochrome P450 1A2 it was 0.0251 µM (inconclusive).
Turning to `COc1ccc(Cn2nnnc2C(c2ccccn2)N2CCN(c3cc(Cl)ccc3C)CC2)cc1` (configuration not stated), the EC50 in data set [2] was 2.04 µM (active); in data set [3], > 60 µM (not active).
In the case of `CCN1C(=S)SC(=O)C1=C1C=C(C)N(CCO)C(C)=C1`, the EC50 in data set [4] is 0.102 µM (active).
`COc1ccc(C2=CC(c3cccc(OC)c3)n3nnnc3N2)cc1` (configuration not stated): the EC50 in data set [1] is > 53 µM (inactive).
As for `Cn1cc(-c2nc3cnc(Oc4ccccc4)nc3n(C)c2=O)c2ccccc21`, the AC50 at Cytochrome P450 1A2 is 12.6 µM (inconclusive).
Still for that read-out and setting: the same measure for `COc1cc(=O)n(C)c2c(OC[C@@H](O)C(C)(C)O)cccc12`: 20 µM (inconclusive) and 12.6 µM (inconclusive).
Turning to `COC(=O)Cn1ncn2c(cc3oc(C)cc32)c1=O`, the EC50 with H4 is 14.7 µM (active); in data set [5], 56 µM (active); in data set [4], 2.68 µM (active).
With `COc1cccc2nc(O)c(-c3ccccc3)cc12`, the EC50 in data set [5] is 8.86 µM (active); in data set [4], 9.22 µM (active).
For `CN1CCN(NC(=O)Nc2cccc(Cl)c2Cl)CC1`, the EC50 is 0.184 µM (active) in data set [2] and > 60 µM (not active) in data set [3].
For `Cc1cc(C)c(C(=O)Cn2cnc3cc([N+](=O)[O-])ccc3c2=O)cc1C`, the results for the EC50 in data set [2] and in data set [3] were 1.61 µM (active) and > 60 µM (not active), respectively.
As to `COc1ccc(C(=O)NCC(=O)N2CCN(C(=O)c3ccco3)CC2)cc1`, in data set [1], the EC50 is > 53 µM (inactive).
Consider `COc1ccc([N+](=O)[O-])c2c1CCN2C(=O)CC[C@H](N)C(=O)O`, for which the AC50 at Cytochrome P450 1A2 was 31.6 µM (inconclusive).
In the case of `O=C(c1ccc(Cl)cc1)C1CCCN(Cc2cccn2-c2cccnc2)C1` (configuration not stated), the EC50 in data set [2] was 2.58 µM (active); in data set [3], > 60 µM (not active).
As to `O=C(c1ccc2nc3ccc(Cl)cc3c(=O)n2c1)N1CCOCC1`, on Cytochrome P450 1A2, the AC50 is 14.1 µM (inconclusive).
Still for that read-out and setting: the value for `CCNc1ncc2nc(-c3cccs3)c(=O)n(-c3ccccc3)c2n1` was 1.58 µM (inconclusive).
`COc1ccc(N(CC(=O)NCCC2=CCCCC2)S(=O)(=O)c2ccc(C)cc2)cc1`: the EC50 was 2.31 µM (active) in data set [2] and > 30 µM (not active) in data set [3].
As to `O=C(CCc1nnc(C2CCCCC2)o1)N1CCN(c2ccccc2F)CC1`, the EC50 is 11.8 µM (active) in data set [5] and 9.13 µM (active) in data set [4].
For the compound `COc1ccc(CN2CCn3ncc(C(=O)Nc4ccccc4)c3C2=O)cc1`, the EC50 in the data set with H4 was 18.9 µM (inconclusive); in data set [5], 66.6 µM (active); in data set [4] it was 14.2 µM (active).
Take `Cc1ccc(NC(=O)C2CCN(c3cnccn3)CC2)cc1`: the results for the EC50 in data set [2] and in data set [3] were 0.9 µM (active) and > 60 µM (not active), respectively.
For `Cc1c(NC2=N/C(=N\C(=O)c3cccs3)c3ccccc32)c(=O)n(-c2ccccc2)n1C`, the EC50 in data set [1] was 5.98 µM (active).
With `Cc1cc(NS(=O)(=O)c2ccc(NC(=O)c3cccc(OC(F)F)c3)cc2)nc(C)n1`, the EC50 in data set [1] is > 53 µM (inactive).
As to `CCOCCCN1CC(C(=O)NCCc2ccc(C)cc2)CC1=O` (configuration not stated), the concentration at half-maximal activity (AC50) on Cytochrome P450 2C19 (read-out: AC50) is 25.1 µM (inconclusive).
With `Cc1cc(C)n(CCc2nc(-c3cc4ccccc4o3)cs2)n1`, the EC50 is 60.2 µM (active) in the data set on H4, 9.04 µM (active) in data set [5] and 7.17 µM (active) in data set [4].
`Cc1c(C)n(CCCN(C)C)c2ncnc(NCc3ccccc3)c12`: the EC50 in data set [2] was 0.911 µM (active); in data set [3] it was > 60 µM (not active).
In the case of `CCOc1ccc2nc(O)c(CN(CCc3ccccc3)C(=O)N3CCOCC3)cc2c1`, the AC50 on Cytochrome P450 1A2 was 17.8 µM (inconclusive).
On to `O=C(/C=C/c1ccco1)NCCc1ccccc1`, for which the EC50 was > 120 µM (not active) in the data set on H4, 14.5 µM (active) in data set [5] and 10.9 µM (active) in data set [4].
For the compound `CCOc1ccc(NC(=O)c2ccc(Br)o2)c([N+](=O)[O-])c1`, at Cytochrome P450 1A2, the AC50 was 3.55 µM (inconclusive).
With `O=[N+]([O-])c1ccc(-[n+]2c(-c3ccccc3)cc(-c3ccccc3)cc2-c2ccccc2)cc1.[O-][Cl+3]([O-])([O-])[O-]`, the EC50 in data set [2] is 0.264 µM (active); in data set [3], > 60 µM (not active); in data set [1] it was 5.02 µM (active).
Consider `CN1CCc2c(sc3c2C(=O)NC(c2cccc(OC(=O)c4cccs4)c2)N3)C1` (configuration not stated), for which the EC50 is 40 µM (active) with H4, 8.11 µM (active) in data set [5] and 6.46 µM (active) in data set [4].
Regarding `O=C(Nc1ncc(S(=O)(=O)c2ccc([N+](=O)[O-])cc2)s1)c1ccccc1F`, the EC50 in data set [1] is 4.81 µM (active).
In the case of `O=c1c2c3c(sc2nc2n1N=C(c1cccs1)CS2)CCCC3`, the EC50 in the data set on H4 is 0.118 µM (active).
In the case of `COc1ccc(C(=O)NCCn2ccc3ccccc32)cc1`, the EC50 in the data set on H4 was 0.488 µM (active); in data set [5] it was 0.132 µM (active); in data set [4], 0.185 µM (active).
Regarding `CCOC(=O)CSc1nc(N2CCOCC2)c2c(c1C#N)CC(C)(C)N(C)C2`, the EC50 in data set [1] is > 53 µM (inactive).
For `CC1(C)CN=C(N(Cc2ccccc2)C(=O)Nc2ccccc2)S1`, the EC50 with H4 is 18.8 µM (active); in data set [5] it was 13.1 µM (active); in data set [4], 12.5 µM (active).
Take `CC(=O)c1ccc(S(=O)(=O)N(Cc2cc3cc4c(cc3nc2O)OCCO4)CC2CCCO2)cc1` (configuration not stated): the EC50 in the data set on H4 was 26.3 µM (active); in data set [5] it was 6.68 µM (active); in data set [4] it was 13.6 µM (active).
Turning to `NC(=O)N/N=C\c1ccc([N+](=O)[O-])o1`, the half-maximal activity concentration (AC50) on Cytochrome P450 1A2 was 12.6 µM (inconclusive).
For `Cc1nc2ncnn2c(C)c1CCC(=O)NC(C)c1ccc2c(c1)OCCO2` (configuration not stated), the concentration at half-maximal activity (AC50) at Cytochrome P450 2C19 (read-out: AC50) was 8.91 µM (inconclusive).
As to `Fc1ccccc1OCCSc1[nH]cnc2ncnc1-2`, the EC50 in the data set on H4 is 14.9 µM (active); in data set [5], 13 µM (active); in data set [4], > 120 µM (not active).
For `Cc1nnc(O)n1-c1cccc(C(F)(F)F)c1`, the AC50 at Cytochrome P450 1A2 was 5.62 µM (inconclusive).
As to `O=C(N/N=C/c1ccc([N+](=O)[O-])cc1)c1ccc(COc2ccccc2-c2ccccc2)cc1`, the EC50 is 1.55 µM (active) in data set [2] and > 30 µM (not active) in data set [3].
Turning to `COc1cc(/C=N/NC2=NC(=O)C(CC(=O)O)S2)ccc1OCc1cccc(Cl)c1` (configuration not stated), the figures for the EC50 (with H4; in data set [5]; in data set [4]) were 19.7 µM (active), 10.1 µM (active) and 6.12 µM (active), respectively.
As to `Cc1cccc2c1OCC/C2=N\NC(=O)COc1ccccc1Cl`, the AC50 on Cytochrome P450 2C19 (read-out: AC50) is 0.708 µM (inconclusive).
Turning to `O=C1C=C(c2ccc3[nH]ccc3c2)CCC1`, the EC50 is 9.94 µM (active) in the data set with H4, 46.4 µM (active) in data set [5] and 16 µM (active) in data set [4].
On to `Cc1ccc(NCc2ccccc2)cc1` [N-BENZYL-4-METHYLANILINE], for which the EC50 is 5.25 µM (active) in data set [2] and > 60 µM (not active) in data set [3].

For the origin of these results see ChEMBL document CHEMBL1201862, “PubChem BioAssay data set” (2004).
